Patent publication US20250073167A1, “A POLYMER TO INCREASE THE BIOAVAILABILITY OF A PHARMACEUTICAL COMPOUND” (CATALYA, priority 2022, published 2025)

Experiment: Oral delivery of fluorescein with 10 kDa polymer: bioavailability and recovery in blood, urine and feces
Type: in vivo, rat
Details: ingestion
Method: Eighteen rats have been selected and have been given either no polymer (rats 1, 2, 10, 11), or the polymer (10 kDa) at a dose of 5 mg/kg (rats 13-15), 50 mg/kg (rats 4-6, 12, 16-18) or 300 mg/kg (rats 3 and 7-9). Fluorescein has been either covalently coupled to the polymer (rats 4-9 and 13-18; labelled as PO or IV in the figures), or physically (non-covalently) adhered to the polymer (rats 3 and 12); labelled as PO* or IV* in the figures.
The polymer has been administered either per ingestion (PO or PO*) or by injection (IV or IV*). Blood concentration of the polymer-fluorescein (FIG. 1), or of the (potentially-free) fluorescein (FIG. 2) has been measured in the blood, in the feces (FIG. 4) and in urine (FIG. 3).

ingested fluorescein found in the feces (rats (FIG. 4)): > 99%
ingested fluorescein internalized (rats, without the polymer): less than 1%
Compound: O=C1OC2(c3ccc(O)cc3Oc3cc(O)ccc32)c2ccccc21 [free fluorescein, fluorescein]
